Patent US5482954A, “Signal transduction inhibitor triazole and diazole compounds” (priority 1994, dated 1996)

How the values were obtained:
A2058 cells [1] = experiment: Type IV collagen-stimulated motility; format: cell-based, human; settings: data not shown
[2] = tested on: 5R ras-transfected rat embryo fibroblasts; experiment: AMF-stimulated cell motility; format: cell-based
Protocol: (§1) The cell motility assay has been described. See, Stracke et al., Biochem. Biophys. Res. Comm., 146:339-345 (1987). Cells from the A2058 human melanoma line which was maintained in subconfluent culture were harvested with trypsin-EDTA, and were allowed to recover for 1 hr at room temperature. Cells from the 5R H-ras transformed (diploid) rat embryo fibroblast line were harvested with 2 mM EDTA in PBS without divalent cations. Cells were resuspended in serum-free media containing 0.1% BSA. This DMEM/0.1% BSA was used as the control for all subsequent assays. The assays were performed in triplicate using a 48-well chemotaxis chamber with 8μ Nucleopore, type IV collagen-coated filters. The chambers were incubated at 37° C. for 4 hr, stained and placed onto glass slides with the original cell side up so that the cell pellet could be wiped from the surface. Cells that had migrated through the pores were trapped between glass and membrane and could be quantitated by laser densitometry.
(§2) Compound 1 was preincubated with the cells for various periods of time, added at the start of the assay, or added later. Additionally, compound 1 remained present during the motility assay. The cells were assayed for their motile response to AMF. AMF stimulates random and directed locomotion of 5R ras-transfected rat embryo fibroblasts and A2058 human melanoma cells. […] Cell viability determined by trypan blue exclusion averaged greater than 96%. Cells exposed to various concentrations of compound 1 were tested for their response to AMF vs. control. Percent stimulated motility (in densitometer units) is defined as: […]
(§3) (AMF stimulated-control)Compound 1 /(AMF stimulated-control)untreated

[3] = tested on: A2058 human melanoma cells; experiment: AMF-stimulated cell motility; format: cell-based
Protocol: as §1, §2, §3

5R cells [4] = experiment: Cell adhesion to tissue culture plastic; format: cell-based, rat; settings: 0.03-10 μg/mL, 2 to 48 hr preincubation
Protocol: (§4) An adhesion assay was developed using tissue culture plastic petri dishes as the substrate. Aliquots of cells treated similarly to those in the cell motility assay were plated in triplicate onto the dishes and incubated for 90 rain at 37° C. Cells which were either poorly adherent or nonadherent were gently washed off with PBS. The remaining cells were stained with Diff Quik™ (from Baxter Scientific Products, McGaw Park. Ill., USA). Adherence was quantitated using laser densitometry and values were calculated as a percentage of the control adherence.
(§5) Cells were preincubated with compound 1 (0.03-10 μg/mL) for periods of 2 to 48 hr prior to the adhesion assay. In addition, compound 1 remained present during the assay. […] Maximal inhibition of adhesion was observed following overnight exposure of the cells to compound 1.

OVCAR3 cells = experiment: Laminin-stimulated cell motility; format: cell-based, human; settings: 1 μg/mL, 18 hr preincubation; laminin 100 μg/mL
[5] = tested on: OVCAR3 human ovarian cancer; experiment: Survival after intraperitoneal treatment; format: in vivo, nude mice; settings: 50 mg/kg/d ip
Text: This example illustrates the effect of compound 1 on the survival of nude mice. The mice had been intraperitoneally injected with OVCAR3 human ovarian cancer cells followed, after three weeks, by intraperitoneal injection of 1.
The OVCAR3 human ovarian cancer animal model accurately approximates the clinical presentation of stage III-IV ovarian cancer of peritoneal carcinomatosis. Untreated, OVCAR3 tumor is lethal to nude mice.
Six-week-old nude mice were inoculated intraperitoneally with 3.4×10^7 OVCAR3 human ovarian cancer cells. After a three week period, all animals had grossly distended abdomens due to OVCAR3 ascites. Two groups of animals (four each) were paired for relative severity of ascites and treatment was initiated. Compound 1, 50 mg/kg/d in 60% DMSO (200 μL aliquot) or a vehicle alone, was administered via daily intraperitoneal injection. Overall survival from start of treatment was the study endpoint. Relative survival improvement was calculated as mean treatment group survival divided by mean control group survival.

[6] = tested on: signal transduction and tumor growth; experiment: Biological and biochemical assays, summary; format: cell-based; settings: summary of all assays
Text: Compound 1 was inhibitory for the biological and biochemical assays.

5R cells [7] = experiment: Oral treatment, prevention of experimental metastasis; format: in vivo, nude mice
Protocol: Finally, compound 1 was tested for efficacy in prevention of the formation and growth of experimental metastases. Oral administration of compound 1 or PEG-400 vehicle to nude mice was carried out for 5 days. On day 6, untreated 5R cells (10^4) were introduced into the animals by tail vein inoculation. The animals were then randomized into four groups. Two groups of animals which had received only vehicle were subsequently treated with either vehicle (PEG/PEG) or 1 (PEG/1). The other two groups which had been treated with 1 were similarly treated post-inoculation with either vehicle (1/PEG) or 1 (1/1). Treatments were continued for 10 d, after which the lungs were removed and the pulmonary metastases were counted. Histologic confirmation of the fibrosarcoma due to the 5R cells was obtained. […] No toxicity was noted during treatment or at necropsy.

A2058 cells [8] = experiment: Proliferation of A2058 cells (monolayer growth, crystal violet); format: cell-based, human
Protocol: For the clonogenic assay, aliquots of 50,000 cells per well (24 well plates) were grown under standard tissue culture conditions in the presence of increasing doses or test compound (0-10 μg/mL) or vehicle control. After 96 hr, the cells were gently washed with PBS, fixed, and stained with 0.5% crystal violet nuclear stain in 20% methanol. Excess stain was removed with tap water and bound stain was eluted with an equal volume solution of 01N sodium citrate (pH 4.2) and absolute ethanol. Optical density (O.D.) of eluted crystal violet stain was determined at 540 nm. The results of dose-dependent inhibition of tumor cell proliferation by compound 1 are shown in FIG. 5, in which the data are expressed as percent of untreated control cell proliferation for each cell type. The degree of inhibition varied with the cell type and was maximal (76%) for the A2058 cell line.
A2058 human melanoma cells were used to test the effect of compounds 1 and 3-25 on cellular proliferation. The cells were cultured in the presence of the test compounds (10 μM) for 96 hr. fixed and stained with crystal violet as described above. Growth inhibition was determined as a percent of control growth (using either DMSO or PEG-400 as the vehicle) for each compound. Each experiment was run a minimum of three times and the average of the results for each compound is provided in Table H and in FIGS. 20A and 20B.

A2058 cells [9] = experiment: Cell adhesion to tissue culture plastic; format: cell-based, human; settings: 0.03-10 μg/mL, 2 to 48 hr preincubation
Protocol: as §4, §5

[10] = overnight preincubation, AMF stimulation

In the case of `NC(=O)c1nnn(Cc2cc(Cl)c(C(=O)c3ccc(Cl)cc3)c(Cl)c2)c1N` [Compound 1], the “motility due to type IV collagen stimulation” value (A2058 cells [1]) is reported as “inhibited motility”, the “inhibition of AMF-stimulated tumor cell motility” value ([2]; 0.03-10 μg/ml) is reported as “inhibited AMF-stimulated tumor cell motility in a dose dependent manner” and the “decrease in stimulated motility” value [2, 10] is reported as “up to 55%”. The “inhibition of AMF-stimulated tumor cell motility” value ([3]; 0.03-10 μg/ml) was “inhibited AMF-stimulated tumor cell motility in a dose dependent manner”, the “inhibition of motility, combination of 1 and PT vs either alone” value ([3]; 1 (1 μg/ml) + PT (0.1 μg/ml), data not shown, cell line not stated) was “did not result in greater inhibition of motility than either drug alone” and the “decrease in stimulated motility” value [3, 10] was “up to 55%”. The inhibition of motility ([3]; same dose as PI assay (1.0 μg/mL)) was 45%, the “inhibition of cell adhesion” value (5R cells [4]) was “dose-dependent inhibition of cell adhesion” and the “inhibition of spontaneous and laminin-stimulated motility” value (OVCAR3 cells) was “inhibited both spontaneous motility”. The “increase of overall survival” value [5] was 220%, the “overall survival from start of treatment” value ([5]; control 7.25±4.4 days) was 16.0 ± 2.5 days and the “inhibition in the biological and biochemical assays” value [6] was “inhibitory”. The toxicity (5R cells [7]; during treatment or at necropsy) was “No toxicity”, the metastatic colonization (5R cells [7]; given prior to tumor cell injection) was “prevented metastatic colonization as effectively as when 1 was administered only after tumor cell inoculation or when given continuously” and the “number of pulmonary metastases” value (5R cells [7]; treatment prior to, post, or prior to and post inoculation) was “statistically significantly inhibited”. The “dose dependent inhibition of proliferation” value (A2058 cells [8]; FIG. 20A, monolayer growth) was “Dose dependent inhibition of proliferation”, the activity at 10 µM (A2058 cells [8]; Homo sapiens, A2058, Table H, 10 μM, 96 hr, read-out: GROWTH (% OF CONTROL)) was 36.4 ± 6% and the “inhibition of cell adhesion” value (A2058 cells [9]) was “dose-dependent inhibition of cell adhesion”.
